Patent US20250170104A1, “INHIBITORS OF PSEUDOMONAS AERUGINOSA VIRULENCE FACTOR Lasß” (priority 2022, published 2025)

What was measured:
[1] = target: LasB (Pseudomonas aeruginosa (strain ATCC 15692 / DSM 22644 / CIP 104116 / JCM 14847 / LMG 12228 / 1C / PRS 101 / PAO1), UniProt P14756); test: In vitro LasB activity assay (fluorogenic substrate); assay type: biochemical; details: LasB 0.3 nM, substrate 150 μM, mean ± SD
Procedure, shortened: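 LasB (0.3 nM) preincubated 15 min at 37 °C with compound, then 150 µM Abz-Ala-Gly-Leu-Ala-p-nitrobenzylamide added in 50 mM Tris pH 7.2, 2.5 mM CaCl2, 0.075% Pluronic F-127, 5% DMSO. Fluorescence (ex 340, em 415 nm) followed 60 min at 37 °C. IC50 from blank-corrected v/v0 slopes, nonlinear regression, Hill slope fixed at 1.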

[2] = Kinetic turbidimetric solubility assay; assay type: physicochemical; details: PBS, aqueous buffer, kinetic from dmso stock
Description: The desired compounds were sequentially diluted in DMSO in a 96-well plate. 1.5 μL of each well were transferred into another 96-well plate and mixed with 148.5 μL of PBS. Plates were shaken for 5 min at 600 rpm at room temperature, and the absorbance at 620 nm was measured. Absorbance values were normalized by blank subtraction and plotted using GraphPad Prism 8.4.2 (GraphPad Software, San Diego, CA, USA). Solubility (S) was determined based on the First X value of AUC function using a threshold of 0.005.

[3] = target: MMP1 (Homo sapiens (Human), UniProt P03956); test: Selectivity assay: inhibition of MMPs; assay type: biochemical
Description: (§1) MMPs-1, -2, -3, -7, -8 and -14 along with the SensoLyte 520 Generic MMP Activity Kit*Fluorimetric* were purchased from AnaSpec (Fremont, CA, USA). The assay was performed as described previously (Schönauer E, Kany A M, Haupenthal J, Hüsecken K, Hoppe I J, Voos K, et al. Discovery of a Potent Inhibitor Class with High Selectivity toward Clostridial Collagenases. J Am Chem Soc. 2017 Sep. 13; 139(36):12696-703) using batimastat as a positive control according to the guidelines of the manufacturer.

[4] = target: MMP2 (Homo sapiens (Human), UniProt P08253); test: Selectivity assay: inhibition of MMPs; assay type: biochemical
Description: as §1

[5] = target: MMP3 (Homo sapiens (Human), UniProt P08254); test: Selectivity assay: inhibition of MMPs; assay type: biochemical
Description: as §1

[6] = target: HDAC3 (Homo sapiens (Human), UniProt O15379); test: HDAC inhibition; assay type: biochemical; details: read-out: Selectivity IC50 HDAC3
Description: (§2) HDAC3 and HDAC8 Inhibitor Screening Assay kits were purchased from Sigma-Aldrich. The assay was performed according to the guidelines of the manufacturer using trichostatin as a positive control. Fluorescence signals were measured in a CLARIOstar plate reader (BMG Labtech).

[7] = target: HDAC8 (Homo sapiens (Human), UniProt Q9BY41); test: HDAC inhibition; assay type: biochemical; details: read-out: Selectivity IC50 HDAC8
Description: as §2

[8] = target: ADAM-17 (TACE) (Homo sapiens (Human), UniProt P78536); test: ADAM-17 (TACE) inhibitor screening assay; assay type: biochemical; details: read-out: Selectivity IC50 TACE
Description: The ADAM-17 (TACE) Inhibitor Screening Assay Kit was purchased from Sigma-Aldrich. The assay was performed according to the guidelines of the manufacturer using ilomastat as a positive control. Fluorescence signals were measured in a CLARIOstar plate reader (BMG Labtech).

[9] = Cytotoxicity assay; assay type: cell-based; details: human
Description: HepG2, HEK293 or A549 cells (2×10^5 cells per well) were seeded in 24-well, flat-bottomed plates. Culturing of cells, incubations, and OD measurements were performed as described previously (Int. J. Cancer 2007, 121, 206-210). Twenty-four hours after seeding the cells, the incubation was started by the addition of test compound in a final DMSO concentration of 1%. The living cell mass was determined after 48 h. At least two independent measurements were performed for each compound.

[10] = test system: P. aeruginosa PA-14; test: MIC determination assay / antibacterial activity; assay type: cell-based; details: Pseudomonas aeruginosa, PA14
Description: Assays regarding the determination of the minimum inhibitory concentration (MIC) were performed as described previously (Elgaher W A M, Fruth M, Groh M, Haupenthal J, Hartmann R W. Expanding the scaffold for bacterial RNA polymerase inhibitors: design, synthesis and structure-activity relationships of ureido-heterocyclic-carboxylic acids. RSC Adv. 2013 Dec. 3; 4(5):2177-94). The experiments were based on the P. aeruginosa strain PA14. For the case that no MIC value could be determined due to activity reasons, percentage (%) inhibition at 100 μM (or lower, depending on the solubility of the compounds) was calculated. The OD600 was measured 0 and 16 h after inhibitor addition in a CLARIOstar Platereader (BMG Labtech, Ortenberg, Germany).

MMP3, sequence (P08254 100-477): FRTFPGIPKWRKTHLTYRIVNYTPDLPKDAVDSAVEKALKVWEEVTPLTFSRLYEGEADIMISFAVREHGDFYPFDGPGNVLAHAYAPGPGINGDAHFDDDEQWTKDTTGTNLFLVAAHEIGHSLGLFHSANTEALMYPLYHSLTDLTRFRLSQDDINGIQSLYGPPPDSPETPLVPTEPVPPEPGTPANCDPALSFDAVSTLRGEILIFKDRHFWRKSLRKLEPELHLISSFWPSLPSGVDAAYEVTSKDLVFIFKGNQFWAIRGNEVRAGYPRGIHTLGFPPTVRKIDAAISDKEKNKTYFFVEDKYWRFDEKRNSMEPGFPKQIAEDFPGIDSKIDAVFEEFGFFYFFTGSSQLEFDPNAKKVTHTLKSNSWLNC
HDAC8, sequence (Q9BY41 whole entry): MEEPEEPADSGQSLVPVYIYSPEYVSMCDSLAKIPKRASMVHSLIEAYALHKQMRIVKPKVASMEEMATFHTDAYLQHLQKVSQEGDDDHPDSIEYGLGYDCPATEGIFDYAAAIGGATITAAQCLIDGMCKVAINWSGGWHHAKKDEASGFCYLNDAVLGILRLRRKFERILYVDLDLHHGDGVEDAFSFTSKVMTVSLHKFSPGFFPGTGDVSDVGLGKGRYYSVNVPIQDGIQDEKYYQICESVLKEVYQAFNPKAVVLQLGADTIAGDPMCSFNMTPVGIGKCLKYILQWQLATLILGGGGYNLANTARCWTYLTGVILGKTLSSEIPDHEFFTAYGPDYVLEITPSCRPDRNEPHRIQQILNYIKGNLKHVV
MMP2, sequence (P08253 110-660): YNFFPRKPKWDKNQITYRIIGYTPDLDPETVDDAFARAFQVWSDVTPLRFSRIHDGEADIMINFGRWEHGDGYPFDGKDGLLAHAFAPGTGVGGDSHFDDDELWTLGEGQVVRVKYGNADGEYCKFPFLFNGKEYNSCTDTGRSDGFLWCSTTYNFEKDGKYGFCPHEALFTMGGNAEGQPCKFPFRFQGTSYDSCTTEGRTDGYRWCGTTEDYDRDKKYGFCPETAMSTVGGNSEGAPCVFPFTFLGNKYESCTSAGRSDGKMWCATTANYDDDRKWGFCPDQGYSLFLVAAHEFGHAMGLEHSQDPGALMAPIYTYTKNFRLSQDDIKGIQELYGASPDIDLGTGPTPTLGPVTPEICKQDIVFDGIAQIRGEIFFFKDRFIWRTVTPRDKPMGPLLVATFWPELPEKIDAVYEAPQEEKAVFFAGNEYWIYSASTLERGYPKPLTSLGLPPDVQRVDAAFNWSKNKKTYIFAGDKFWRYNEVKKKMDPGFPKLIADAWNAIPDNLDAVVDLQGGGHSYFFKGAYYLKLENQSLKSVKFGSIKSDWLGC
ADAM-17 (TACE), sequence (P78536 whole entry, looked up): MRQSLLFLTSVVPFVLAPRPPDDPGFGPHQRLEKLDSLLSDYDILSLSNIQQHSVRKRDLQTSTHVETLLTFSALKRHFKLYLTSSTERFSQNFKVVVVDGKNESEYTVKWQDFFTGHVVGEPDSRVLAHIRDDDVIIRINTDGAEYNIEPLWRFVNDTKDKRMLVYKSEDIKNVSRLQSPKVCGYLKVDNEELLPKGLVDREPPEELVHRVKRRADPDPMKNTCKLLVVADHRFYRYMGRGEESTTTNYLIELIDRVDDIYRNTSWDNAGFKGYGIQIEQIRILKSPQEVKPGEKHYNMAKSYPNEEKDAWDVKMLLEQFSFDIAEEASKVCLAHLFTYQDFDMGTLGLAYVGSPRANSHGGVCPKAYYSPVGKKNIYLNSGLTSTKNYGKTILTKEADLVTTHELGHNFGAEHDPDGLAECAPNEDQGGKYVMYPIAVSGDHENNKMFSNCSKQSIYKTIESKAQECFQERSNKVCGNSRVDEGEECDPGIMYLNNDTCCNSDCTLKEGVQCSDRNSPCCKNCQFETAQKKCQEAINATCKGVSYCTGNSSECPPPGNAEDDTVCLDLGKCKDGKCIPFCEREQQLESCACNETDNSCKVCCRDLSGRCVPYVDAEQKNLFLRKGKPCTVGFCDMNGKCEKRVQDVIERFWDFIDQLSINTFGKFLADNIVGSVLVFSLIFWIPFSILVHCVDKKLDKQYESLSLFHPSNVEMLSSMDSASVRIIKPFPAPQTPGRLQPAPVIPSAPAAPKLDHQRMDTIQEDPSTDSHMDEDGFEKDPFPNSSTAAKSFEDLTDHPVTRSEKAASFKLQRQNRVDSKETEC
HDAC3, sequence (O15379 whole entry, looked up): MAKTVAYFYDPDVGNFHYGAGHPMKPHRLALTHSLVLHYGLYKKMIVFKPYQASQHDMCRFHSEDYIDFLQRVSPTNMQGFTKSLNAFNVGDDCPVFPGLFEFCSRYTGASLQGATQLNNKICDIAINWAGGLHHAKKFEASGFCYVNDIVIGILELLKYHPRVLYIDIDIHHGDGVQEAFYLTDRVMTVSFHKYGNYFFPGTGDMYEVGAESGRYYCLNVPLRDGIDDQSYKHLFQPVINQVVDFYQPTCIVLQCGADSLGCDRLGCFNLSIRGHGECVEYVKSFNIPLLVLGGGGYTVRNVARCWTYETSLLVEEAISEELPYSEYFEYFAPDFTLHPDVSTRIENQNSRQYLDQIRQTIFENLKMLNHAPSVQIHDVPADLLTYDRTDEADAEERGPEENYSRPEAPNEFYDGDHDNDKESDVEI
HDAC3, sequence (Q9Y618 whole entry partner, looked up): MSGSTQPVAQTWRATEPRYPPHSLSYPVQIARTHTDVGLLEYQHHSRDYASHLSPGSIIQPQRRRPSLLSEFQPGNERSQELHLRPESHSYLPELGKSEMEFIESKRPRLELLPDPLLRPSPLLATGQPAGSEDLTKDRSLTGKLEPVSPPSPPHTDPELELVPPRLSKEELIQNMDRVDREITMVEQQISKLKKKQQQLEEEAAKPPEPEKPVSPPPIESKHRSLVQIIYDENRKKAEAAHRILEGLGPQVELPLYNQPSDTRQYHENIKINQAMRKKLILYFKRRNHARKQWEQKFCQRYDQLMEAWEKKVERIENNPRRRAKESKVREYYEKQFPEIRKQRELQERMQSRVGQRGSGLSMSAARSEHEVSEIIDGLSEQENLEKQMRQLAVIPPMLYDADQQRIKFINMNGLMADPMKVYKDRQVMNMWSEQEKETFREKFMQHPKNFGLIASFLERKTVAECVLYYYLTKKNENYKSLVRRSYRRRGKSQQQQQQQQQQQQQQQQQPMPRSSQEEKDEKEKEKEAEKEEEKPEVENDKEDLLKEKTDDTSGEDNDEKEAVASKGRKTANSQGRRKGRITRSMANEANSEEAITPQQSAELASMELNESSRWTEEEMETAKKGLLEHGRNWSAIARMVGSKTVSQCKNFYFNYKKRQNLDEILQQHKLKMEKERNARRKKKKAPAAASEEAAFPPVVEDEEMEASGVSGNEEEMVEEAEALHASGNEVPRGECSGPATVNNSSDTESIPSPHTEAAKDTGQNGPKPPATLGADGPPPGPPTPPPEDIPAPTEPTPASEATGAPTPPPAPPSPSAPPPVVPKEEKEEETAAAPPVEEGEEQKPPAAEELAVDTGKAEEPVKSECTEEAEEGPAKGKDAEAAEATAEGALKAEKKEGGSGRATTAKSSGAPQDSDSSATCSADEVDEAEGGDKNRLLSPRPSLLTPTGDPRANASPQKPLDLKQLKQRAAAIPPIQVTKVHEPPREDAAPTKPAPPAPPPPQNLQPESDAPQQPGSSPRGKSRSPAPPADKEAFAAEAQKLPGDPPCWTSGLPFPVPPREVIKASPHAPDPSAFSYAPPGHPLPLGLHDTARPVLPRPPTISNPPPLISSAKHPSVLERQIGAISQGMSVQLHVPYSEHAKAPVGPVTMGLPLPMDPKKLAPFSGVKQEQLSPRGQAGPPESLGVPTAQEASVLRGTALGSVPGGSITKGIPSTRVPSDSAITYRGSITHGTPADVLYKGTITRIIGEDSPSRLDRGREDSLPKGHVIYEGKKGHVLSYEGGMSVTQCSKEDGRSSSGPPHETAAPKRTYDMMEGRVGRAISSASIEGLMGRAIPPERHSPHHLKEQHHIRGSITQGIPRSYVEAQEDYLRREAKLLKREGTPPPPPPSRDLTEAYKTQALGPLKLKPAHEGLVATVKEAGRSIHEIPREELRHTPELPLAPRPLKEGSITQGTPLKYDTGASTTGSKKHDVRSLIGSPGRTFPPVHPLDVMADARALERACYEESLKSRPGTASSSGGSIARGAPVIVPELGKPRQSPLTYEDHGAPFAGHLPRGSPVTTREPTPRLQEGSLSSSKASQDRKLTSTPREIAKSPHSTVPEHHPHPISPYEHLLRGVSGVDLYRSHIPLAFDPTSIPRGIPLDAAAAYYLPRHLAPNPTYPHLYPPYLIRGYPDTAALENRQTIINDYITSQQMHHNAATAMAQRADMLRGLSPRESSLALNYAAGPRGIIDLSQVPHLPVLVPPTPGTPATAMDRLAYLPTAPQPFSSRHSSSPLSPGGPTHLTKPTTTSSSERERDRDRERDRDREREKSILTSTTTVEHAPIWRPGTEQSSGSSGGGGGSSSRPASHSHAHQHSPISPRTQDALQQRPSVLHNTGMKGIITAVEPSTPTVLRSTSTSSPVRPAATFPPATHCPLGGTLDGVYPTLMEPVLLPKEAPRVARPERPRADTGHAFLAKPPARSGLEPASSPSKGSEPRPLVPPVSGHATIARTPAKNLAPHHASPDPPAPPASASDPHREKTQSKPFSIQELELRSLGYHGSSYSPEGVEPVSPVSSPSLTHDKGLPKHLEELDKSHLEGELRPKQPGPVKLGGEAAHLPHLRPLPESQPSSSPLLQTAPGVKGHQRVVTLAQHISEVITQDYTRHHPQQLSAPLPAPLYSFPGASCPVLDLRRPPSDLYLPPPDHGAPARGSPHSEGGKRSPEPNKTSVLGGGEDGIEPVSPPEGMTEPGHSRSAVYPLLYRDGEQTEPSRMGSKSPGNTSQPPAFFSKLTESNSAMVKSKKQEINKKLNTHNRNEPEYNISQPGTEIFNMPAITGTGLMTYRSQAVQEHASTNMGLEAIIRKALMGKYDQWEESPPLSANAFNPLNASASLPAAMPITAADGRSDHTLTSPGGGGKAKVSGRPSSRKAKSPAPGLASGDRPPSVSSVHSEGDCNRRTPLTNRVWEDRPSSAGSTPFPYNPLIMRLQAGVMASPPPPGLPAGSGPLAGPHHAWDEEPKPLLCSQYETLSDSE

**Q.** For CC(C)CC(C(=O)NO)C(=O)Nc1ccc(Cn2cc(CNS(=O)(=O)CC(C)C)nn2)cc1 (stereo not drawn) [Compound 169, 2-(Hydroxycarbamoyl)-N-[4-[[4-[(isobutylsulfonylamino)methyl]triazol-1-yl]methyl]phenyl]-4-methyl-pentanamide], which IC50 [1] is on record?
**A.** 0.0052 ± 0.0002 µM

**Q.** What about the solubility at 5 min [2] of the same molecule?
**A.** > 200 µM

**Q.** And the IC50 [3]?
**A.** > 100 µM

**Q.** And the IC50 [4]?
**A.** > 100 µM

**Q.** What about the IC50 [5] of the same molecule?
**A.** > 100 µM

**Q.** What about the IC50 [6] of the same molecule?
**A.** > 100 µM

**Q.** What about the IC50 [7] of the same molecule?
**A.** > 100 µM

**Q.** What about the IC50 [8] of the same molecule?
**A.** > 100 µM

**Q.** And the IC50 at 48 h ([9]; A549 cells)?
**A.** > 100 µM

**Q.** What about the IC50 at 48 h ([9]; HEK293 cells) of the same molecule?
**A.** > 100 µM

**Q.** What about the IC50 at 48 h ([9]; HepG2 cells) of the same molecule?
**A.** > 100 µM

**Q.** What about the IC50 [10] of the same molecule?
**A.** > 100 µM
